We go through 20 molecules from PubChem BioAssay AID248 (DTP/NCI, 2004).

The assay deals with L1210 leukemia ip in BDF1 mice, survival T/C. Kind of assay: NCI In Vivo Anticancer Drug Screen. Data for tumor model L1210 Leukemia (intraperitoneal) in B6D2F1 (BDF1) mice. The conditions noted are these: endpoint: mean survival time, higher = longer survival. A digest of the protocol:
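Tumor was transplanted into mice, which were then dosed with test compound or vehicle alone. Survival was recorded for each group, and the treated figure was expressed relative to the control figure.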

[1] abbreviates: dose: 100.0 mg/kg/injection, schedule: Q01DX001 (ip), vehicle: saline.
The mark [2] stands for this setting: dose: 200.0 mg/kg/injection, schedule: Q01DX001 (ip), vehicle: saline.
Setting [3] is: dose: 400.0 mg/kg/injection, schedule: Q01DX001 (ip), vehicle: saline.
[4] abbreviates: dose: 100.0 mg/kg/injection, schedule: Q04DX003 (ip), vehicle: saline with Tween-80.
Where [5] appears, read: dose: 200.0 mg/kg/injection, schedule: Q04DX003 (ip), vehicle: saline with Tween-80.
Where [6] appears, read: dose: 100.0 mg/kg/injection, schedule: Q01DX001 (ip), vehicle: carboxymethylcellulose (CMC).
The mark [7] stands for this setting: dose: 200.0 mg/kg/injection, schedule: Q01DX001 (ip), vehicle: carboxymethylcellulose (CMC).
The mark [8] stands for this setting: dose: 400.0 mg/kg/injection, schedule: Q01DX001 (ip), vehicle: carboxymethylcellulose (CMC).
The mark [9] stands for this setting: dose: 100.0 mg/kg/injection, schedule: Q01DX009 (ip), vehicle: saline with Tween-80.
The mark [10] stands for this setting: dose: 200.0 mg/kg/injection, schedule: Q01DX009 (ip), vehicle: saline with Tween-80.
The mark [11] stands for this setting: dose: 100.0 mg/kg/injection, schedule: Q04DX003 (ip), vehicle: Klucel (hydroxypropylcellulose) (HPC).
The mark [12] stands for this setting: dose: 200.0 mg/kg/injection, schedule: Q04DX003 (ip), vehicle: Klucel (hydroxypropylcellulose) (HPC).
Setting [13] is: dose: 400.0 mg/kg/injection, schedule: Q04DX003 (ip), vehicle: Klucel (hydroxypropylcellulose) (HPC).
[14] abbreviates: dose: 100.0 mg/kg/injection, schedule: Q04DX003 (ip), vehicle: saline.

Values joined by “and” are separate entries in the source; they are usually repeats but may differ in a detail not shown here. Identical values can stand only once. Inconclusive results and toxic doses are left out.

As for `CC1CN=C(c2ccc(NC(=O)c3ccc(C(=O)Nc4ccc(C5=NCC(C)N5)cc4)cc3)cc2)N1` (stereo unspecified), the T/C reads like this: (dose: 0.5 mg/kg/injection, schedule: Q01DX Z (ip), vehicle: carboxymethylcellulose (CMC)) 100 % of control; (dose: 1.0 mg/kg/injection, schedule: Q01DX Z (ip), vehicle: carboxymethylcellulose (CMC)) 117 % of control; (dose: 1.0 mg/kg/injection, schedule: Q01DX Z (ip), vehicle: saline) 119 % of control; (dose: 1.9 mg/kg/injection, schedule: Q01DX Z (ip), vehicle: carboxymethylcellulose (CMC)) 198 % of control; (dose: 2.9 mg/kg/injection, schedule: Q01DX Z (ip), vehicle: carboxymethylcellulose (CMC)) 173 % of control and 193 % of control; (dose: 3.8 mg/kg/injection, schedule: Q01DX Z (ip), vehicle: carboxymethylcellulose (CMC)) 228 % of control. For the same molecule, the T/C was 157 % of control (dose: 4.3 mg/kg/injection, schedule: Q01DX Z (ip), vehicle: carboxymethylcellulose (CMC)); 207 % of control (dose: 6.5 mg/kg/injection, schedule: Q01DX Z (ip), vehicle: carboxymethylcellulose (CMC)); 337 % of control (dose: 7.5 mg/kg/injection, schedule: Q01DX Z (ip), vehicle: carboxymethylcellulose (CMC)); 205 % of control (dose: 9.7 mg/kg/injection, schedule: Q01DX Z (ip), vehicle: carboxymethylcellulose (CMC)); 243 % of control (dose: 15.0 mg/kg/injection, schedule: Q01DX Z (ip), vehicle: carboxymethylcellulose (CMC)); 175 % of control (dose: 30.0 mg/kg/injection, schedule: Q01DX Z (ip), vehicle: carboxymethylcellulose (CMC)). For the same molecule, the T/C is 97 % of control (dose: 30.0 mg/kg/injection, schedule: Q01DX Z (oral), vehicle: carboxymethylcellulose (CMC)); 151 % of control (dose: 32.8 mg/kg/injection, schedule: Q01DX Z (ip), vehicle: carboxymethylcellulose (CMC)); 119 % of control (dose: 60.0 mg/kg/injection, schedule: Q01DX Z (ip), vehicle: saline); 94 % of control (dose: 60.0 mg/kg/injection, schedule: Q01DX Z (oral), vehicle: carboxymethylcellulose (CMC)); 102 % of control (dose: 62.5 mg/kg/injection, schedule: Q## X010 (oral), vehicle: saline); 114 % of control (dose: 74.0 mg/kg/injection, schedule: Q01DX Z (ip), vehicle: carboxymethylcellulose (CMC)). Besides, the T/C is 101 % of control (dose: 111.0 mg/kg/injection, schedule: Q01DX Z (ip), vehicle: carboxymethylcellulose (CMC)); 114 % of control (dose: 120.0 mg/kg/injection, schedule: Q01DX Z (ip), vehicle: saline); 97 % of control (dose: 120.0 mg/kg/injection, schedule: Q01DX Z (oral), vehicle: carboxymethylcellulose (CMC)); 102 % of control (dose: 125.0 mg/kg/injection, schedule: Q## X010 (oral), vehicle: saline); 94 % of control (dose: 240.0 mg/kg/injection, schedule: Q01DX Z (oral), vehicle: carboxymethylcellulose (CMC)); 102 % of control (dose: 250.0 mg/kg/injection, schedule: Q## X010 (oral), vehicle: saline). In addition, the T/C is 117 % of control (dose: 375.0 mg/kg/injection, schedule: Q01DX Z (ip), vehicle: carboxymethylcellulose (CMC)) and 103 % of control (dose: 500.0 mg/kg/injection, schedule: Q## X010 (oral), vehicle: saline).

Turning to `CN(C)S(=O)(=O)c1ccc(NC(=O)OC(C)(c2ccccc2)C2CCCCC2)cc1` (stereo unspecified), the T/C reads like this: under setting [1], 100 % of control; under setting [2], 100 % of control; under setting [3], 97 % of control.

Regarding `CCCCCCC(C(C(C)=O)C(C)=O)C(C(C)=O)C(C)=O`, the T/C is 91 % of control under setting [4] and 93 % of control under setting [5].

In the case of `Nc1ccc2c(c1)/C(=N/O)c1ccccc1-2`, the T/C is, setting by setting: under setting [6], 105 % of control; under setting [7], 97 % of control; under setting [8], 100 % of control.

With `CN(C)NP(=O)(c1ccccc1)c1ccccc1`, the T/C was 98 % of control under setting [1], 95 % of control under setting [2] and 97 % of control under setting [3].

`Cc1ccc(S(=O)(=O)NC(CSCc2ccccc2)C(=O)O)cc1` (stereo unspecified): the T/C reads like this: under setting [9], 92 % of control; under setting [10], 101 % of control.

For `Nc1nc(N)c(CCCOc2cccc(Cl)c2Cl)c(N)n1`, the T/C is, setting by setting: (dose: 87.5 mg/kg/injection, schedule: Q01DX009 (ip), vehicle: Klucel (hydroxypropylcellulose) (HPC)) 95 % of control; (dose: 175.0 mg/kg/injection, schedule: Q01DX009 (ip), vehicle: Klucel (hydroxypropylcellulose) (HPC)) 88 % of control; (dose: 350.0 mg/kg/injection, schedule: Q01DX009 (ip), vehicle: Klucel (hydroxypropylcellulose) (HPC)) 106 % of control.

With `c1ccc2c(c1)CCc1ccccc1CC2`, the T/C (dose: 100.0 mg/kg/injection, schedule: Q01DX009 (ip), vehicle: Klucel (hydroxypropylcellulose) (HPC)) was 93 % of control; the T/C (dose: 200.0 mg/kg/injection, schedule: Q01DX009 (ip), vehicle: Klucel (hydroxypropylcellulose) (HPC)) was 96 % of control; the T/C (dose: 400.0 mg/kg/injection, schedule: Q01DX009 (ip), vehicle: Klucel (hydroxypropylcellulose) (HPC)) was 90 % of control.

Consider `COc1ccc(C)cc1NC(=O)Oc1ccc2c(C)cc(=O)oc2c1`, for which the T/C is 96 % of control under setting [9] and 96 % of control under setting [10].

Consider `O=[N+]([O-])c1ccc(N/N=C(\Oc2ccccc2)c2ccc([N+](=O)[O-])cc2)cc1`, for which the T/C under setting [4] was 94 % of control and the T/C under setting [5] was 90 % of control.

In the case of `COC(=O)c1c2ccccc2nc2c1c(C)c(C)c1ccccc12`, the T/C by setting is: under setting [11], 96 % of control; under setting [12], 110 % of control; under setting [13], 101 % of control.

As for `CC[Si](Cl)(CC)CCCl`, the T/C is, setting by setting: under setting [14], 98 % of control; (dose: 200.0 mg/kg/injection, schedule: Q04DX003 (ip), vehicle: saline) 97 % of control; (dose: 400.0 mg/kg/injection, schedule: Q04DX003 (ip), vehicle: saline) 117 % of control.

With `CN(C)CCCC(=O)O`, the T/C by setting is: (dose: 100.0 mg/kg/injection, schedule: Q01DX009 (ip), vehicle: saline) 89 % of control; under setting [4], 106 % of control; (dose: 200.0 mg/kg/injection, schedule: Q01DX009 (ip), vehicle: saline) 97 % of control; under setting [5], 95 % of control; (dose: 400.0 mg/kg/injection, schedule: Q01DX009 (ip), vehicle: saline) 95 % of control; (dose: 400.0 mg/kg/injection, schedule: Q04DX003 (ip), vehicle: saline with Tween-80) 88 % of control.

For the molecule `Cc1cccc(Nc2nc(N)nc(N)c2N=O)c1C`, the T/C runs as follows: (dose: 100.0 mg/kg/injection, schedule: Q01DX Z (ip), vehicle: methylcellulose (MC)) 96 % of control; (dose: 200.0 mg/kg/injection, schedule: Q01DX Z (ip), vehicle: methylcellulose (MC)) 102 % of control.

In the case of `O=C(/C=C/c1cccc2ccccc12)c1ccc(Cl)cc1`, the T/C runs as follows: under setting [11], 105 % of control; under setting [12], 96 % of control; under setting [13], 94 % of control.

Take `COC(=O)/C=C(\C)Nc1cc(OC)ccc1OC`: the T/C is, setting by setting: under setting [1], 94 % of control; under setting [2], 87 % of control; under setting [3], 92 % of control.

Regarding `COc1ccc(OC)c2c(C)c(C)[nH]c12`, the T/C is, setting by setting: (dose: 50.0 mg/kg/injection, schedule: Q01DX001 (ip), vehicle: saline) 98 % of control; under setting [1], 93 % of control; under setting [2], 109 % of control; under setting [3], 106 % of control.

`NS(=O)(=O)c1cc2c(cc1Cl)NC(CSCC(F)(F)F)NS2(=O)=O` (stereo unspecified): the T/C reads like this: under setting [6], 113 % of control; under setting [7], 108 % of control; under setting [8], 97 % of control.

Consider `O=C(O)c1c(-c2nccc3ccccc23)[nH]c(-c2ccccc2)c1S(=O)(=O)O`, for which the T/C was 103 % of control (dose: 75.0 mg/kg/injection, schedule: Q01DX001 (ip), vehicle: saline) and 101 % of control (dose: 150.0 mg/kg/injection, schedule: Q01DX001 (ip), vehicle: saline).

As to `Cc1ccncc1C1CCCN1C` (stereo unspecified), the T/C was 94 % of control (dose: 25.0 mg/kg/injection, schedule: Q04DX003 (ip), vehicle: saline); 102 % of control (dose: 50.0 mg/kg/injection, schedule: Q04DX003 (ip), vehicle: saline); 94 % of control under setting [14].
